pIC50: −log10 of the molar value.

Experiment [1] deals with T1, Plasminogen activator inhibitor 1 (Homo sapiens, UniProt P05121). As to the kind of experiment: Inhibitory activity of compound against Plasminogen activator inhibitor-1.
The target of experiment [2] is T1, Plasminogen activator inhibitor 1. As to the kind of experiment: Tissue plasminogen activator generation in plasmin was evaluated by measuring the ability to inhibit Plasminogen activator inhibitor-1 through fibrin plate assay.
Experiment [3] shares this target. As to the kind of experiment: Tissue plasminogen activator generation in plasmin was evaluated by measuring the ability to inhibit Plasminogen activator inhibitor-1 through complex assay.

T1 sequence (P05121 whole entry): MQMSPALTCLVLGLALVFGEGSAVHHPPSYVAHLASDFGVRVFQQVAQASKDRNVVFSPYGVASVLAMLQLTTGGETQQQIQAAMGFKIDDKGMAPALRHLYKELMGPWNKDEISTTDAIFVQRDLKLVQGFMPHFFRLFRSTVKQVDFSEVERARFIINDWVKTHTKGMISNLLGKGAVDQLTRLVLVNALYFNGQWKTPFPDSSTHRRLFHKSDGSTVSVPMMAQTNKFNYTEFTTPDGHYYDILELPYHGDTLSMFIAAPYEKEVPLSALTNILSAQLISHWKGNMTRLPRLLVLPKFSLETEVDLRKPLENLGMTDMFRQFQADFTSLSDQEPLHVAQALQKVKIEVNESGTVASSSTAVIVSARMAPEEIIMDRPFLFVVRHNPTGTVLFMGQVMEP

As for `CN(C)CCSc1ccc(/C=c2\[nH]c(=O)/c(=C/c3ccc(NC(=O)c4ccccc4)cc3)[nH]c2=O)s1`, in experiment [1], the pIC50 is 5.21.
Still for that read-out and setting: to `COC(=O)CCCCCCCOc1ccc(/C=c2\[nH]c(=O)/c(=C/c3ccc(NC(=O)c4cccs4)cc3)[nH]c2=O)cc1` belongs 5.71; to `O=C(O)CCCCOc1ccc(/C=c2\[nH]c(=O)/c(=C/c3ccc(NC(=O)c4cccs4)cc3)[nH]c2=O)cc1`, 5.76.
Still for that read-out and setting: as for `O=C(O)c1ccc(/C=c2\[nH]c(=O)/c(=C/c3ccccc3)[nH]c2=O)cc1`, the figure is less than 4.60; as for `Cc1ccc(/C=c2\[nH]c(=O)/c(=C/c3ccc(SCCN(C)C)s3)[nH]c2=O)cc1`, 4.91; as for `CN(C)CCSc1ccc(/C=c2\[nH]c(=O)/c(=C/c3ccc(N(C)C)cc3)[nH]c2=O)s1`, less than 4.60.
Consider `CCN(CC)CCSc1ccc(/C=c2\[nH]c(=O)/c(=C/c3ccccc3)[nH]c2=O)s1`, for which, in experiment [1], the pIC50 was less than 4.60.
On the same count and under the same terms, as for `CN(C)CCSc1ccc(/C=c2\[nH]c(=O)/c(=C/c3ccccc3)[nH]c2=O)s1`, the figure is 5.46; as for `O=C(O)CCCOc1ccc(/C=c2\[nH]c(=O)/c(=C/c3ccccc3)[nH]c2=O)cc1`, 4.70; as for `COc1ccc(/C=c2\[nH]c(=O)/c(=C/c3ccc(SCCN(C)C)s3)[nH]c2=O)cc1`, 4.96.
Same read-out and setting: to `O=C(O)COc1ccc(/C=c2\[nH]c(=O)/c(=C/c3ccccc3)[nH]c2=O)cc1` belongs less than 4.60; to `O=C(O)CCCCCCC(=O)Nc1ccc(/C=c2\[nH]c(=O)/c(=C/c3ccc(NC(=O)c4cccs4)cc3)[nH]c2=O)cc1`, 6.28; to `CN(C)CCSc1ccc(/C=c2\[nH]c(=O)/c(=C/c3ccc(Br)cc3)[nH]c2=O)s1`, 4.88.
Compound `O=C(O)CCCCCCCCC(=O)Nc1ccc(/C=c2\[nH]c(=O)/c(=C/c3ccc(NC(=O)c4cccs4)cc3)[nH]c2=O)cc1` had a pIC50 in experiment [1] of 6.41.
`CN(C)CC[S+]([O-])c1ccc(/C=c2\[nH]c(=O)/c(=C/c3ccccc3)[nH]c2=O)s1` (stereo unspecified) gave a pIC50 in experiment [1] of less than 4.60.
The same measure, in the same setting: to `CN(C)CCSc1ccc(/C=c2\[nH]c(=O)/c(=C/c3ccc(C#N)cc3)[nH]c2=O)s1` belongs less than 4.60; to `CN(C)CCSc1ccc(/C=c2\[nH]c(=O)/c(=C/c3ccccc3Br)[nH]c2=O)s1`, less than 4.60; to `CN(C)CCSc1ccc(/C=c2\[nH]c(=O)/c(=C/c3cccc(Cl)c3)[nH]c2=O)s1`, less than 4.60.
On the same count and under the same terms, as for `O=C(O)CCCCOc1ccc(/C=c2\[nH]c(=O)/c(=C/c3ccccc3)[nH]c2=O)cc1`, the figure is 4.82.
Take `O=C(O)CCCCCCCOc1ccc(/C=c2\[nH]c(=O)/c(=C/c3ccc(NC(=O)c4cccs4)cc3)[nH]c2=O)cc1`: the negative-log IC50 (pIC50) in experiment [2] was 6.59; in experiment [1], 6.70; in experiment [3] it was 6.29.
`CN(C)CCOc1ccc(/C=c2\[nH]c(=O)/c(=C/c3ccccc3)[nH]c2=O)s1`: the negative logarithm of the IC50 (pIC50) in experiment [1] was less than 4.60.
The same measure, in the same setting: as for `CN(C)CCSc1ccc(/C=c2\[nH]c(=O)/c(=C/c3ccc(NC(=O)c4cccs4)cc3)[nH]c2=O)s1`, the figure is 5.51.
For the compound `COC(=O)c1ccc(/C=c2\[nH]c(=O)/c(=C/c3ccc(SCCN(C)C)s3)[nH]c2=O)cc1`, in experiment [1], the pIC50 is 4.75.
Still for that read-out and setting: to `COC(=O)CCCCCCC(=O)Nc1ccc(/C=c2\[nH]c(=O)/c(=C/c3ccc(NC(=O)c4cccs4)cc3)[nH]c2=O)cc1` belongs 5.32.

Source of the values: ChEMBL document CHEMBL1133974, “Synthesis and in vitro evaluation of a series of diketopiperazine inhibitors of plasminogen activator inhibitor-1” (Bioorg Med Chem Lett, 2001).
